Measurements as given in ChEMBL document CHEMBL1795291, “Computer- and structure-based lead design for epigenetic targets” (Bioorg Med Chem, 2011).

Columns and labels:
[1] = molecular target: T1, NAD-dependent protein deacetylase sirtuin-2 (Homo sapiens, UniProt Q8IXJ6); assay: Inhibition of human Sirt2
T1 sequence (Q8IXJ6 whole entry): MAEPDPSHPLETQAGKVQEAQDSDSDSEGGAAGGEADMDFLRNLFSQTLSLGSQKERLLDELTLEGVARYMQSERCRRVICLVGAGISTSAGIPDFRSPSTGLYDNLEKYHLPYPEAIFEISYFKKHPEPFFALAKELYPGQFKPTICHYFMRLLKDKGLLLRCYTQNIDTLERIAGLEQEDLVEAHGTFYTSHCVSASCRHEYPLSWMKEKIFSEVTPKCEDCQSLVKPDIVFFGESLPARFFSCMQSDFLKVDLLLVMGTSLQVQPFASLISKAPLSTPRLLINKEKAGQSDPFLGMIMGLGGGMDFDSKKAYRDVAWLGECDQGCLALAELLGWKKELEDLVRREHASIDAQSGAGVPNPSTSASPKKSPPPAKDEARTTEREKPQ

[2] = Inhibition of HDAC by fluorescence assay
[3] = molecular target: T2, Histone-lysine N-methyltransferase EHMT2 (Homo sapiens, UniProt Q96KQ7); assay: Inhibition of lysine methyltransferase G9a
T2 sequence (Q96KQ7 whole entry): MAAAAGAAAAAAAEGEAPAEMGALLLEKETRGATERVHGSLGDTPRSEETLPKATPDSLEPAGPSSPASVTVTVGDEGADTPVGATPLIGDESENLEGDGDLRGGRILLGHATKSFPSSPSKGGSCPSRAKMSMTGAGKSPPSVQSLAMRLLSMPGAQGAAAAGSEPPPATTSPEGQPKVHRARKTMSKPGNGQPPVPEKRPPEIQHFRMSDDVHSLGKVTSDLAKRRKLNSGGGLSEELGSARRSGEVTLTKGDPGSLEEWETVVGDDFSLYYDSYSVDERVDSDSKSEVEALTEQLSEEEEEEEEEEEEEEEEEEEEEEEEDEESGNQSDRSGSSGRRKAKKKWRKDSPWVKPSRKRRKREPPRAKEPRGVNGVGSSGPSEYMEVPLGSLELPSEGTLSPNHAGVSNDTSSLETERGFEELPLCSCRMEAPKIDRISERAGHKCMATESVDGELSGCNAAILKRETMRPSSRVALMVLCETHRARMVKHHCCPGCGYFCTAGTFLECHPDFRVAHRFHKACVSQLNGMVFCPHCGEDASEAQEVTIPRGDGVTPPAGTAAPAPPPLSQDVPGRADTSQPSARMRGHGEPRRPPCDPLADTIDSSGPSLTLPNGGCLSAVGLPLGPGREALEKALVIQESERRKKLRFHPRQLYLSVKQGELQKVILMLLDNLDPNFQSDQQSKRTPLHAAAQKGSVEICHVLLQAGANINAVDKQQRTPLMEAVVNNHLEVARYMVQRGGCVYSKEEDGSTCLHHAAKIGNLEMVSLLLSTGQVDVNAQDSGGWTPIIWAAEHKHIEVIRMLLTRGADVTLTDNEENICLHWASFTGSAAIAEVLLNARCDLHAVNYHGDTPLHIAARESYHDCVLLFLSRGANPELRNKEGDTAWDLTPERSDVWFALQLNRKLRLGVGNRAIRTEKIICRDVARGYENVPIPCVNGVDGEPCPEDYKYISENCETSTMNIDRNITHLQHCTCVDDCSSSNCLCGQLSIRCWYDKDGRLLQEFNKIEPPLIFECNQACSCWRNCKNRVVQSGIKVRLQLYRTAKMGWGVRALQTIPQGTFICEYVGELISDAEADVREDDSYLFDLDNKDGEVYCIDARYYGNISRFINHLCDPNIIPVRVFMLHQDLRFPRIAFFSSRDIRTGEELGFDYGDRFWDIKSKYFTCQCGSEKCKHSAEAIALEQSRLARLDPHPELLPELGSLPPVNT

Q: For O=C1NC(=S)NC(=O)C1=Cc1ccc(-c2ccccc2)cc1, which IC50 [1] is on record?
A: 8.7 µM

Q: Which IC50 [2] does the source give for CCc1nnc(NS(=O)(=O)c2ccc(N/C=C3\Sc4ccccc4C3=O)cc2)s1 here?
A: 4.3 µM

Q: Which IC50 [3] does the source give for COc1ccc(C(=O)Oc2ccc(CCn3c(NC(=O)c4ccc(C(F)(F)F)cc4)nc4cc(C(=O)O)ccc43)cc2)cc1 here?
A: 0.106 µM
